According to patent US5294724A, “4-hydroxytetrahydropyran-2-ones and the corresponding dihydroxycarboxylic acid derivatives, salts and esters and a process for their preparation” (priority 1989, dated 1994):

What was measured:
HMG-CoA reductase = molecular target: T1, HMG-CoA reductase (Rattus norvegicus, UniProt P51639); experiment: Inhibition of HMG-CoA reductase activity in solubilized enzyme preparations from rat liver microsomes; assay type: biochemical; settings: sodium salts of the dihydroxycarboxylic acids; mean of 3 parallel samples; read-out: IC50 (molar concentration necessary for a 50% inhibition)
T1 construct: solubilized enzyme preparations from liver microsomes of rats; from tissue; host or cells: rat liver microsomes (cholestyramine-induced rats), solubilized
T1 sequence (P51639 1-887): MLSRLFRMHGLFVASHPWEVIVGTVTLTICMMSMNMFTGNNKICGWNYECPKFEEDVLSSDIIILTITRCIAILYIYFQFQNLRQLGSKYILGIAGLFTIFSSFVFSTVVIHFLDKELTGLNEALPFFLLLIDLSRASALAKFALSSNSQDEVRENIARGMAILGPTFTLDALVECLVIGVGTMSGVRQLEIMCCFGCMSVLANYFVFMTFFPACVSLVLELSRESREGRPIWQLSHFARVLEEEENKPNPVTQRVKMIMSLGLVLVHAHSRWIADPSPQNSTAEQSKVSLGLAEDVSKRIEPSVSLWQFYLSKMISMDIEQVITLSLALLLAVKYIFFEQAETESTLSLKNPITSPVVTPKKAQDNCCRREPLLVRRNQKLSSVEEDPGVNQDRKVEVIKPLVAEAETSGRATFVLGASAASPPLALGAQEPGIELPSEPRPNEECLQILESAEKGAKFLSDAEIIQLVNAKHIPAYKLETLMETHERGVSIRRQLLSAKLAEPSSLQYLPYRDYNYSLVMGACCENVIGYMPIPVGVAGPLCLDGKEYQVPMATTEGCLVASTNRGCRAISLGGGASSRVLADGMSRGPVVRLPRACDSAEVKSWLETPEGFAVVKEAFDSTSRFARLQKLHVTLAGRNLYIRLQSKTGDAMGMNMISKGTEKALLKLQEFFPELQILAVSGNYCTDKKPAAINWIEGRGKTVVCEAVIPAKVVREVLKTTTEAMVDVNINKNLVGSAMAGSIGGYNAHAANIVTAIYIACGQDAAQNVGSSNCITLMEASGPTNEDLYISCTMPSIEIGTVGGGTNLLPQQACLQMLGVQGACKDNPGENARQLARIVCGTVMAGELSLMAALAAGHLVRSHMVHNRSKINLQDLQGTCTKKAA
Experimental: 1) Inhibition of HKG-CoA reductase activity in solubilized enzyme preparations from rat liver microsomes
HMG-CoA reductase activity was measured on solubilized enzyme preparations from liver microsomes of rats which had been induced by conversion into the day/night rhythm using cholestyramine (®Cuemid). (S,R)^14 C-HMG-CoA was used as a substrate, and the concentration of NADPH was maintained during the incubation by a regenerating system. The separation of ^14 C-mevalonate from substrate and other products (for example ^14 C-HMG) was carried out by column elution, the elution profile of each individual sample being determined. The regular addition of ^3 H-mevalonate was avoided as the determination gives the data relative to the inhibitory action. The enzyme-free control, the enzyme-containing normal mixture (=100%) and those containing preparation additives were in each case treated together in one series of experiments. The sodium salts of the dihydroxycarboxylic acids of the formula II were always employed as the preparation in this test. Each individual value was formed as the mean value of 3 parallel samples. The significance of the mean value differences between preparation-free and preparation-containing samples was evaluated by the t-test.

HEP G2 cells = experiment: Inhibition of cholesterol biosynthesis in cell cultures (HEP G2 cells), incorporation of 14C-sodium acetate in cholesterol; assay type: cell-based; settings: for IC50 / IC70: Homo sapiens, HepG2, sodium salts, test compounds corrected by deviation of mevinolin sodium from its mean value; for IC50: read-out: IC50 (concentration necessary for a 50% inhibition); for IC70: read-out: IC70 (concentration necessary for a 70% inhibition); for Relative potency in % / Relative potency in % (value in parentheses): mevinolin sodium = 100; for Relative potency in %: from IC50; for Relative potency in % (value in parentheses): corresponds to IC70
Experimental: 2) Inhibition of cholesterol biosynthesis in cell cultures (EEP G2 cells)
Determination of the inhibition of the incorporation of ^14 C-sodium acetate in cholesterol
Monolayers of HEP G2 cells in lipoprotein-free medium were preincubated with various concentrations of the sodium salts of the dihydroxycarboxylic acids of the formula II for 1 hour. After adding ^14 C-labeled sodium acetate, the incubation was continued for 3 hours. Tritium-labeled cholesterol was added as an internal standard and an aliquot of the cells was subjected to alkaline hydrolysis. The lipids were extracted using chloroform/methanol 2: 1. After adding carrier cholesterol, the lipid mixture was preparatively separated on TLC plates using chloroform/acetone 9: 1. The cholesterol zone was made visible by staining with iodine vapor, additionally detected using a TLC radio scanner and then scraped off. The amount of ^14 C-cholesterol formed was determined scintigraphically and related to mg of cell protein. The same procedure was carried out with cells from the Bame culture without preincubation with a test compound (so-called "solvent control"). The potency of the test compounds was determined by comparison of the biosynthesized ^14 C-cholesterol in test runs and in "solvent control".

[1] = system: microsomal lipid peroxidation; experiment: Inhibition of microsomal lipid peroxidation (in vitro); assay type: biochemical; settings: 10^-5 mol/l
Experimental: 5) Inhibition of microsomal lipid peroxidation (in vitro)
The inhibition of lipid peroxidation was measured under the experimental conditions described by H. Wafers and H. Sies, Eur. J. Biochem. 174, 353-357 (1988). The microsomes were obtained according to the literature cited therein. IC50 denotes the concentration of the test compound in moles per liter which causes a 50% inhibition of lipid peroxidation.

serum total cholesterol = experiment: Hypocholesterolemic activity in rabbits after p.o. administration; assay type: in vivo, male white New Zealand rabbits; settings: for Serum total cholesterol, % change compared to control group: rabbit p.o., 5 mg/kg per day (constant)
Experimental: 4) Hypocholesterolemic activity in rabbits after p.o. administration
Normolipemic male white New Zealand rabbits, body weight 3-3.5 kg, were divided into groups of 5 animals. The groups in each case received one of the test compounds (sodium salts of the compounds of the formula II), suspended in 1% aqueous methylcellulose (®Tylose MH 300), 5.10 or 20 mg/kg/day daily in the morning by stomach tube. The animals of the control groups received only Tylose MH 300. Every 3-4 days samples of venous blood were taken from all animals 20 hours after the oral administration. The serum total cholesterol was determined enzymatically in these samples using the test combination of Boehringer Mannheim (CHOD-PAP high performance method). The serum cholesterol level of the treated animals was compared with that of the control groups. A "discharge phase" followed the 20-day "treatment phase", in which the change in the serum cholesterol level was further monitored.

LDL [2] = experiment: Inhibition of Cu2+-catalyzed LDL oxidation in vitro; assay type: biochemical, porcine; settings: 5 μM Cu2+, 2 hours at 37° C.; for IC50: fluorescence 430 nm, read-out: IC50 (50% inhibition of LDL oxidation)
Experimental: 6) Inhibition of Cu^2+ -catalyzed LDL oxidation in vitro LDL was isolated from porcine plasma which contained EDTA (1 mg/ml) by ultracentrifugation in salt solutions of NaCl/NaBr between the densities 1.019 and 1.063 g/ml (cf. R. J. Havel et al., J. Clin. Invest. 43, 1345 (1955)). LDL was then dialyzed against phosphate-buffered saline (160 mM NaCl, 10 mM NaH2 PO4), pH 7.4 and stored under nitrogen at 4° C. Before the oxidation process, the LDL fractions were diluted to a final protein concentration of 0.1 mg/ml using phosphate-buffered saline and 2.5 ml aliquot parts were pre-incubated under nitrogen with the test compounds (25 μl of ethanolic solution) for 1 hour at 37° C. (cf. McLean et al., Biochemistry 1989, 28, 321). For the Cu^2+ -catalyzed oxidation of LDL, 12.5 μl of a 1 mM CuSO4 solution were added to each sample, a 5 μM Cu^2+ concentration resulting. The incubation was carried out for 2 hours at 37° C. and in an air atmosphere. The fluorescence intensity was measured at 430 nm (excitation wavelength 365 nm) (cf. Steinbrecher, U. P., J. Biol. Chem. 1987, 262, 3603). […] In addition, the inhibition using a 10^-5 N concentration of the test compound is indicated in %.

LDL [3] = settings: cited from earlier work
serum lipoproteins = experiment: Action on serum lipoproteins and other metabolic parameters of male rats in the subchronic test; assay type: in vivo; settings: rat
Experimental: 3) Action on serum lipoproteins and other metabolic parameters of male rats in the subchronic test
Groups of male rats of the strain HOE: WISKf (SPF 71) having a starting weight of above 180 g received the test preparations daily in the morning (sodium salts of the dihydroxycarboxylic acids of the formula II) in polyethylene glycol 400 by stomach tube; the respective control group received only the vehicle. The last (7th) administration was carried out 24 hours before taking blood and sacrificing. There was free access to food and water during the experiment. 24 hours before taking blood, which wall carried out retroorbitally under slight ether anesthesia before and after the treatment period (i.e. on the 1st and 8th day), the food was withdrawn. Total cholesterol was determined in the serum of each individual animal [CHODPAP high performance method of Boehringer Mannheim], and, as a measure of the triglycerides, total glycerol was also determined analytically from the serum pool of all the animals of one group [GPO-PAP high performance method, Boehringer Mannheim].
Immediately after taking blood, the animals were sacrificed by dislocation of the spine, and the relative liver weight, the change in body weight and the food consumption were determined.
For the analysis of the serum lipoproteins, the serum of all the rats of one group was pooled. The serum lipoproteins were separated using the preparative ultracentrifuge.
The following conditions were used for the separation of the fractions VLDL, LDL and HDL:
The determination of the protein was carried out by the method of Lowry et al. [LOWRY O. H., ROSEBOROUGH, N.J., PARR, A. L. and RANDELL, R. J.: J. Biol. Chem. 193, 265 (1951)].

[4] = 30 mg/kg daily by stomach tube, 7 administrations

| SMILES | IC50 (HMG-CoA reductase) [nM] | IC50 (HEP G2 cells) [nM] | IC70 (HEP G2 cells) [nM] | Relative potency in % (HEP G2 cells) [%] | Relative potency in % (value in parentheses) (HEP G2 cells) [%] | Inhibition at 10^-5 mol/l [1] [%] | Serum total cholesterol, % change compared to control group (serum total cholesterol; administration 3) [%] | Serum total cholesterol, % change compared to control group (serum total cholesterol; administration 10) [%] | Serum total cholesterol, % change compared to control group (serum total cholesterol; administration 14) [%] | Serum total cholesterol, % change compared to control group (serum total cholesterol; discharge phase 3) [%] | Serum total cholesterol, % change compared to control group (serum total cholesterol; discharge phase 6) [%] | Serum total cholesterol, % change compared to control group (serum total cholesterol; discharge phase 11) | IC50 (LDL [2]) [nM] | further results |
| --- | --- | --- | --- | --- | --- | --- | --- | --- | --- | --- | --- | --- | --- | --- |
| CC(C)c1cc(Sc2ccc(F)cc2)cc(-c2ccc(F)cc2)c1OC[C@@H](O)C[C@@H](O)CC(=O)O [Example 1] | 6 | 4.3 | ~0.8 | 1163 | 18750 | < 10 | -44 | -46 | -43 | -22 | -17 | -6% | > 10000 | onset of action / maximum action (serum total cholesterol; Table 4): commences very early on. The maximum action was virtually achieved even in the first measurement after 3 days of treatment; plasma cholesterol decrease compared with mevinolin and compound C (serum total cholesterol; Table 4, lower dosage): substantially greater plasma cholesterol decrease than mevinolin or the compound C in spite of lower dosage; Serum total cholesterol, % change compared to control group (serum total cholesterol; administration 17): -42%; Serum total cholesterol, % change compared to control group (serum total cholesterol; administration 20): -48%; Inhibition at 10^-5 M (LDL [2]; 10^-5 M): 41% |
| CC(C)c1c(OC[C@@H](O)C[C@@H](O)CC(=O)O)c(C(C)C)c(C(C)C)c(O)c1-c1ccc(F)cc1 [Example 9] | 4 | 7.5 | 12 | 667 | 1250 | < 10 | -8 | -12 | -15 | -4 | -4 | +6% | 6000 |  |
| CC(C)(Sc1cc(C(C)(C)C)c(O)c(C(C)(C)C)c1)Sc1cc(C(C)(C)C)c(O)c(C(C)(C)C)c1 [probucol, reference compound] |  |  |  |  |  |  |  |  |  |  |  |  | 500 | oxidative modification of LDL in vivo (LDL [3]): prevents oxidative modification of LDL; biliary cholesterol excretion (LDL [3]; in vivo): increases biliary cholesterol excretion; lowering of LDL and HDL (LDL [3]; in vivo): lowers both LDL and HDL; plasma cholesterol-lowering action compared with a potent cholesterol biosynthesis inhibitor (such as mevinolin) (LDL [3]; in vivo): only poorly pronounced; rate of catabolism of LDL (LDL [3]; in vivo): increases the rate of catabolism of LDL; Body weight, % changes in the mean value relative to starting (serum lipoproteins; [4]): +5%; Glycerol VLDL, % change compared to control (serum lipoproteins; [4]): +24%; Liver weight, % changes in the mean value relative to control (serum lipoproteins; [4]): +5%; Protein LDL, % change compared to control (serum lipoproteins; [4]): -23%; Protein VLDL, % change compared to control (serum lipoproteins; [4]): -6%; Total cholesterol HDL, % change compared to control (serum lipoproteins; [4]): -11%; Total cholesterol LDL, % change compared to control (serum lipoproteins; [4]): -24%; Total cholesterol VLDL, % change compared to control (serum lipoproteins; [4]): +4%; Cholesterol HDL/LDL (serum lipoproteins; 30 mg/kg daily, control standardization to 1.00): 0.97 |
